“And” between values parts separate entries of the source, which are not always exact repeats. Equal entries are not always repeated. ± gives the expanded uncertainty stated by the source.
Assay: molar enthalpy of vaporization or sublimation
Details: 298.15 K; Liquid; Static calorimetry

| molar enthalpy | Compound |
| --- | --- |
| 11.9 kcal/mol and 12.5 kcal/mol | CCCCCCCCCC [decane] |
| 19.9 ± 0.526 kcal/mol | CCOC(=O)c1cccc(N)c1 [ethyl 3-aminobenzoate] |

| Compound | molar enthalpy |
| --- | --- |
| CCOC(=O)c1ccccc1N [ethyl 2-aminobenzoate] | 17 ± 0.311 kcal/mol |

Reference: the NIST ThermoML archive (doi:10.1016/j.jct.2019.02.001)
